Test results as given in patent US9062074B2, “(9E)-15-(2-pyrrolidin-1-yl-ethoxy)-7,12,25-trioxa-19,21,24-triaza-tetracyclo[18.3.1.1(2.5).1(14,18)]hexacosa-1(24),2,4,9,14,16,18(26),20,22-nonaene citrate salt” (CTI BioPharma Corp., priority 2009, dated 2015).
Like-named read-outs stand apart in the source and are kept apart here.

Columns and labels:
Type in all cases: physicochemical
[1] = Differential Scanning Calorimetry (DSC); settings: from DSC endotherm shape and TGA weight loss
Protocol: Differential Scanning Calorimetry (DSC) data were collected on a Mettler DSC 823e equipped with a 34 position auto-sampler. The instrument was calibrated for energy and temperature using certified indium. Typically 0.5-3 mg of each sample, in a pin-holed aluminium pan, was heated at 10° C.min^−1 from 25° C. to 350° C. A nitrogen purge at 50 ml.min^−1 was maintained over the sample. The instrument control and data analysis software was STARe v9.10.

[2] = Phase stability by XRPD after storage at 40° C. and 75% relative humidity for one week; settings: solid form by low resolution XRPD after one week
Protocol: Condition 2 (Low Resolution)
X-Ray Powder Diffraction patterns were also collected on a Bruker D8 diffractometer using Cu K[…] radiation (40 kV, 40 mA), θ-2θ goniometer, and divergence of V4 and receiving slits, a Ge monochromator and a Lynxeye detector. The instrument is performance checked using a certified Corundum standard (NIST 1976). The software used for data collection was Diffrac Plus XRD Commander v2.5.0 and the data were analysed and presented using Diffrac Plus EVA v 11.0.0.2 or v 13.0.0.2. Samples were run under ambient conditions as flat plate specimens using powder as received. Approximately 15 mg of the sample was gently packed into a cavity cut into polished, zerobackground (510) silicon wafer. The sample was rotated in its own plane during analysis. The details of the data collection are:
The samples which had been prepared for the collection of low resolution XRPD traces were placed in a chamber maintained at 40° C. and 75% relative humidity. After one week the samples were reanalysed by low resolution XRPD (Condition 2), to check for phase changes. It can be seen that no phase change has occurred, and that citrate salts of the invention are stable for at least one week under these conditions.

[3] = Solubility assessment (solvent added in 10 volume aliquots); settings: organic solvent or mixture, thermodynamic from solid, read-out: Solubility assessment observation
Protocol: For each solvent investigated, approximately 8 mg of compound 1 was weighed into an 8 ml screw top glass vial. The solvent was added in 10 volume aliquots and the mixture sonicated and warmed (with a hot-air gun) to encourage dissolution. If dissolution was not achieved after the addition of 100 volumes of solvent, a further 100 volumes was added.

[4] = Thermogravimetric Analysis (TGA)
Protocol: Thermogravimetric Analysis (TGA) data were collected on a Mettler TGA/SDTA 851e equipped with a 34 position autosampler. The instrument was temperature calibrated using certified indium. Typically 5-30 mg of each sample was loaded onto a pre-weighed aluminium crucible and was heated at 10° C.min^−1 from ambient temperature to 350° C. A nitrogen purge at 50 ml.min^−1 was maintained over the sample. The instrument control and data analysis software was STARe v9.10.

C1=C2COC/C=C/COCc3cc(ccc3OCCN3CCCC3)Nc3nccc(n3)C(=C1)O2 [Batch 4]
temperature above which gross degradation is occurring [1]: > 176 °C | Phase Stability 1 wk @ 40° C./75% RH [2]: Crystalline Form 1 | solubility ([3]; TBME, TBME, 10 vols): < 100 mg/mL | solubility ([3]; TBME, TBME, 20 vols): < 50 mg/mL | solubility ([3]; TBME, TBME, 30 vols): < 33.3 mg/mL | solubility ([3]; TBME, TBME, 40 vols): < 25 mg/mL | solubility ([3]; TBME, TBME, 50 vols): < 20 mg/mL | solubility ([3]; TBME, TBME, 60 vols): < 16.7 mg/mL | solubility ([3]; TBME, TBME, 70 vols): < 14.3 mg/mL | solubility ([3]; TBME, TBME, 80 vols): < 12.5 mg/mL | solubility ([3]; TBME, TBME, 90 vols): < 11.1 mg/mL | solubility ([3]; TBME, TBME, 100 vols): < 10 mg/mL | solubility ([3]; TBME, TBME, 200 vols): < 5 mg/mL | solubility ([3]; ethyl acetate, Ethyl acetate, 10 vols): < 100 mg/mL | solubility ([3]; ethyl acetate, Ethyl acetate, 20 vols): < 50 mg/mL | solubility ([3]; ethyl acetate, Ethyl acetate, 30 vols): < 33.3 mg/mL | solubility ([3]; ethyl acetate, Ethyl acetate, 40 vols): < 25 mg/mL | solubility ([3]; ethyl acetate, Ethyl acetate, 50 vols): < 20 mg/mL | solubility ([3]; ethyl acetate, Ethyl acetate, 60 vols): < 16.7 mg/mL | solubility ([3]; ethyl acetate, Ethyl acetate, 70 vols): < 14.3 mg/mL | solubility ([3]; ethyl acetate, Ethyl acetate, 80 vols): < 12.5 mg/mL | solubility ([3]; ethyl acetate, Ethyl acetate, 90 vols): < 11.1 mg/mL | solubility ([3]; ethyl acetate, Ethyl acetate, 100 vols): < 10 mg/mL | solubility ([3]; ethyl acetate, Ethyl acetate, 200 vols): < 5 mg/mL | solubility ([3]; i-propyl acetate, i-propyl acetate, 10 vols): < 100 mg/mL | solubility ([3]; i-propyl acetate, i-propyl acetate, 20 vols): < 50 mg/mL | solubility ([3]; i-propyl acetate, i-propyl acetate, 40 vols): < 25 mg/mL | solubility ([3]; i-propyl acetate, i-propyl acetate, 60 vols): < 16.7 mg/mL | solubility ([3]; i-propyl acetate, i-propyl acetate, 80 vols): < 12.5 mg/mL | solubility ([3]; i-propyl acetate, i-propyl acetate, 100 vols): < 10 mg/mL | solubility ([3]; i-propyl acetate, i-propyl acetate, 200 vols): < 5 mg/mL | solubility ([3]; toluene, Toluene, 10 vols): < 100 mg/mL | solubility ([3]; toluene, Toluene, 20 vols): < 50 mg/mL | solubility ([3]; toluene, Toluene, 30 vols): < 33.3 mg/mL | solubility ([3]; toluene, Toluene, 40 vols): < 25 mg/mL | solubility ([3]; toluene, Toluene, 50 vols): < 20 mg/mL | solubility ([3]; toluene, Toluene, 60 vols): < 16.7 mg/mL | solubility ([3]; toluene, Toluene, 70 vols): < 14.3 mg/mL | solubility ([3]; toluene, Toluene, 80 vols): < 12.5 mg/mL | solubility ([3]; toluene, Toluene, 90 vols): < 11.1 mg/mL | solubility ([3]; toluene, Toluene, 100 vols): < 10 mg/mL | solubility ([3]; toluene, Toluene, 200 vols): < 5 mg/mL | Thermogravimetric Analysis weight change ([4]; 160 to 250° C.): −20% w/w 160 to 250 °C | Thermogravimetric Analysis weight change ([4]; ambient to 160° C.): −0.4% w/w ambient to | weight loss in TGA corresponding to DSC thermal event ([4]; at thermal event at 176° C.): ~20%
